Here are results for two compounds from patent publication US20250241840A1, “ORALLY ADMINISTRATED COSMETIC COMPOSITIONS TO TREAT SKIN DRYNESS” (IIAA Limited, priority 2022, published 2025).

Test [1] concerns human subjects with dry skin and mild to moderate atopic dermatitis. Conditions: 200 mg/day GLA orally; measurements at weeks 0, 4, 8, 12 and 16; cited from earlier work.
Test [2] has as its system skin of the cheek. As to the kind of experiment: Example 1: 28-day oral hyaluronic acid study, hydration, TEWL and wrinkle depth of the skin of the cheek. Particulars: 200 mg HA orally once daily, 28 days. In kind it is in vivo, human. The protocol:
A cachet containing 200 mg hyaluronic acid (HA) was administered orally, once daily, to 30 subjects for 28 days. The hyaluronic acid administered in this manner consisted of hyaluronic acid molecules having molecular weights in a range of from 50 to 2200 kDa. The hydration, TEWL and wrinkle depth of the skin of the cheek of each subject was measured on the first day of the 28-day study and on the last day of the 28-day study. A Courage+Khazaka Dual 580 Multi Probe Adapter System fitted with a Corneometer™ CM 825 probe (obtainable from Courage & Khazaka Electronic GmbH of Mathias-Brüggen-Straße 91, 50829 Köln, Germany) was used to measure the surface hydration of the subjects' skin. A Courage+Khazaka Dual 580 Multi Probe Adapter System fitted with a Tewameter™ 300 probe was used to measure the TEWL of the subjects' skin. A PRIMOS 3D™ optical skin measurement device was used to measure the depth and width of wrinkles in the subjects' skin. The average percentage change in each of the parameters measured from the first day of the 28-day study to the last day of the 28-day study was calculated.

Take `CCCCC/C=C\C/C=C\C/C=C\CCCCC(=O)O` [GLA, all-cis-6,9,12-octadecatrienoic acid]: the “Effect on TEWL” value in test [1] is “reduce TEWL”.
hyaluronic acid: the “Skin surface hydration, average percentage change over the course of the 28-day study” value is reported as “+10.6%” in test [2] (Corneometer CM 825) and “+10.6%” in test [2] (Corneometer CM 825, listed as HA). For the same compound, the “Wrinkle depth, average percentage change over the course of the 28-day study” value in test [2] (PRIMOS 3D) is given as −18.8%. Moreover, the “TEWL, average percentage change over the course of the 28-day study” value in test [2] (Tewameter 300) is listed as −3.9%.
